These results are taken from US11135223B2, “Compositions and methods for inhibiting Dkk-1” (YALE UNIVERSITY, priority 2016, dated 2021).

In this experiment the target is T1, Dkk-1 (Mus musculus, UniProt O54908).
T1 construct: the primary circulating source of Dkk-1 in during both homeostatic and allergen-challenged conditions is platelets; from tissue; host or cells: living C57BL/6 mice; circulating Dkk-1 released from platelets
T1 sequence (O54908 32-272): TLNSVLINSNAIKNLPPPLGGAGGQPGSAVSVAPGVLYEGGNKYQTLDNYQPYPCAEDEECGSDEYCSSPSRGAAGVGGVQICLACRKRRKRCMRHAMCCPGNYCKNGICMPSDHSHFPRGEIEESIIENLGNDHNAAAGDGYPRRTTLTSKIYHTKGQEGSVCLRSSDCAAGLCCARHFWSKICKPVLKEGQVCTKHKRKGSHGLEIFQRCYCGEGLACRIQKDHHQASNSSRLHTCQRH
The experiment is described as follows: House dust mite (HDM)-induced asthma model. The format is in vivo, mice. An excerpt:
FIG. 1, comprising FIG. 1A through FIG. 1F, depicts results of experiments showing the characterization of Dkk-1^d/d mice. FIG. 1A depicts flow cytometry analysis of single cell suspensions from spleen of six to ten week-old Dkk-1^d/d mice (n=5) and their wildtype littermate controls (n=3). FIG. 1B depicts flow cytometry analysis of single cell suspensions from bone marrow of six to ten week-old Dkk-1^d/d mice (n=5) and their wildtype littermate controls (n=3). FIG. 1C depicts ELISA analysis of splenic CD4 T cells isolated by MACS and stimulated with anti-CD3 and anti-CD28 mAb (2 μg/ml) for 4 days. FIG. 1C depicts percentage of cells in peripheral blood from ten to twelve week-old Dkk-1^d/d mice (n=5) and their wildtype littermate controls (n=5) measured by HEMAVAT analyzer. WBC (White blood cells), NE (Neutrophils), LY (Lymphocytes), MO (Monocytes), EO (Eosinophils) were counted. FIG. 1D depicts cell number in peripheral blood from ten to twelve week-old Dkk-1^d/d mice (n=5) and their wildtype littermate controls (n=5) measured by HEMAVAT analyzer. WBC (White blood cells), NE (Neutrophils), LY (Lymphocytes), MO (Monocytes), EO (Eosinophils) were counted. FIG. 1F depicts airway resistance of Dkk-1^d/d and C57Bl/6 mice. […] Control group mice (n=3) were challenged with PBS. […] Dkk-1 inhibitor (10 mg/kg) was injected intraperitoneally at day −1, +1, +6, +8, +10, and +12. Student's t-test was used. n.s, not significant. Small horizontal lines indicate the mean (±s.e.m.). *, p<0.05
FIG. 11, comprising FIG. 11A through FIG. 11J, depicts results of experiments showing Dkk-1 facilitates leukocyte migration and regulates leukocyte-platelet aggregate formation in type 2 inflammation. FIG. 11A depicts flow cytometry analysis of CD45^+ cells in lung homogenates from nine-week old Dkk-1^d/d mice and wildtype littermate controls (n=5-6/group) 72 hours after challenge with 30 μg HDM allergen extract. FIG. 11B depicts analysis of percentages of CD45^+CD41^+ cells in peripheral blood from nine-week old Dkk-1^d/d mice and wildtype littermate controls collected at 4 hours and 24 hours after allergen challenge. FIG. 11C depicts flow cytometry analysis of CD45+ cells after Dkk-1 protein (300 ng/mouse) was injected intraperitoneally. FIG. 11D depicts a schematic diagram of Dkk-1 inhibitor treatment protocol for each group (n=5 for each group) in the HDM-induced asthma model. HDM allergen extract (10 μg) was challenged intranasally at the indicated time points. FIG. 11E depicts analysis of CD45^+ leukocytes numbers in BALF and Lung after Dkk-1 inhibitor treatment in the HDM-induced asthma model. FIG. 11F depicts analysis of neutrophils, eosinophils, and CD4 T cell numbers in the lungs after Dkk-1 inhibitor treatment in the HDM-induced asthma model. FIG. 11G depicts analysis of the number of CD4 T cells in mediastinal LNs. FIG. 11H depicts ELISA analysis of cytokines after 4 days of stimulation of med LN cells. FIG. 111 depicts scoring of H&E staining. FIG. 11J depicts scoring of PAS staining.
FIG. 13, comprising FIG. 13A through FIG. 13C, depicts results of experiments showing pharmacological antagonism of Dkk-1 in the HDM-induced asthma model. FIG. 13A depicts neutrophils and eosinophils in BALF. FIG. 13B depicts CD4 T cell percentages in med LNs measured by flow cytometry. FIG. 13C depicts representative images H&E and PAS staining. One-way ANOVA analysis with Dunnet's post-hoc test was performed. **, p<0.005, *, p<0.05.
FIG. 18 depicts results of experiments showing a Dkk-1 monoclonal antibody treatment protects […] mice from house dust mite (HDM)-induced asthma. Six-week-old female C57Bl/6 mice were treated with PBS(n=4), HDM(n=5), HDM and isotype antibody (n=5), and HDM plus Dkk-1 mAb (n=5). 10 μg of HDM was treated intranasally on day 0, 7, 8, 9, 10 and 11. Isotype antibody or Dkk-1 mAb was treated on day −1, +1, +6, +8, and +10. On day 14, mice were sacrificed and the lungs were harvested. fHCD45+ leukocytes were counted by flow cytometry. […]

Take `NCC1CCN(c2nccc(-c3ccc4ccccc4c3)n2)CC1` [WAY-262611, (1-(4-(naphthalen-2-yl)pyrimidin-2-yl)piperidin-4-yl)methanamine]: the “airway resistance increase by HDM” value (C57Bl/6 mice, Dkk-1 inhibitor 10 mg/kg intraperitoneally, FIG. 1F) is given as “notably decreased”. Also, where the note is “FIG. 11G”, the “number of CD4 T cells in mediastinal lymph nodes” value was “reduced”. Further, where the note is “both ET (early treatment) and LT (late treatment) protocols, FIG. 11E, 11F, 13A”, the “Leukocyte infiltration including CD4 T cells, neutrophils, and eosinophils in BAL fluid and lung tissues” value is reported as “markedly decreased”. Also, where the note is “challenge stage or sensitization stage treatment, FIG. 11I, 11J, 13C”, the “histopathological scores (H&E, PAS)” value is reported as “inhibition of type 2 inflammatory responses”. Further, for the setting “ex vivo stimulation of med LN cells 4 days, FIG. 11H”, the “TH2 cytokine secretion from mediastinal lymph nodes” value was “diminished”. In addition, under “mediastinal lymph nodes, FIG. 13”, the “percentage of CD4 T cells in the lymph nodes” value is listed as “did not change”.
